Read-outs that look alike come from different tables or passages of the source. A value given as a limit tells only on which side of the number the result lay.

The text below walks through data of US10981932B2, “Macrocyclic indole derivatives” (Bayer Aktiengesellschaft, priority 2016, dated 2021).

Test [1] deals with SUDHL10. The experiment in a line: Anti-proliferative effect (CellTiter-Glo, 72 h), SUDHL10. Type of test: cell-based. The note with it: Homo sapiens, SU-DHL10, 72 h, SUDHL10 cells, antiproliferation, 72 h incubation, median, read-out: Antiproli SUDHL10 [M] (median). Here is the method:
Assessment of the Anti-Proliferative Effect of Compounds in Different Cell Lines
The impact of compounds on the proliferation of different cell lines was assessed using the CellTiter-Glo® Luminescent Cell Viability reagent from Promega (G7573). Of note, SUDHL10 and SUDHL5 (DLBCL), NCI-H929 (Multiple Myeloma), A2780 (ovarian carcinoma) as well as MV-4-11(AML) cells are sensitive to MCL-1 inhibition.
In parallel, cells were plated in a reference (day 0) plate for time zero determination.
Rim wells were excluded. The cells were incubated for 72 h hours in a humidified incubator at 37° C. The day 0 plate was measured by adding 30 μl/well of CTG solution (CellTiter-Glo® Luminescent Cell Viability reagent, Promega G7573) to time zero wells in the reference plate followed by a 10 minutes incubation and luminescence reading at 0.1 ms, using the PHERAstar FS microplate reader (BMG Labtech).
After 72 h incubation, the treated plates were measured in the same way as the day 0 plate mentioned above.

Test [2] concerns SUDHL10. The experiment in a line: Induction of cytotoxicity (CellTiter-Glo, 5 h), SUDHL10. The following applies: Homo sapiens, SU-DHL10, 5 h, read-out: Cytotox SUDHL10 [M] (median), SUDHL10 cells, cytotoxicity induction, CellTiter-Glo, 5 h incubation, median.
The test system of test [3] is SUDHL5. The experiment in a line: Anti-proliferative effect (CellTiter-Glo, 72 h), SUDHL5. Type of test: cell-based. The note with it: Homo sapiens, SU-DHL-5, 72 h, SUDHL5 cells, antiproliferation, 72 h incubation, median, read-out: Antiproli SUDHL5 [M] (median). In short, it runs like this: (§1)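 Luminescence from CellTiter-Glo, read 10 min after reagent addition, reports viable cell content after 72 h of compound treatment at 37 °C. A reference plate read at day 0 gives the starting baseline.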
In general terms: In ATP-based viability assays light output follows the ATP content of the culture.

The test system of test [4] is SUDHL5. The experiment in a line: Induction of cytotoxicity (CellTiter-Glo, 5 h), SUDHL5. The following applies: Homo sapiens, SU-DHL-5, 5 h, read-out: Cytotox SUDHL5 [M] (median), SUDHL5 cells, cytotoxicity induction, CellTiter-Glo, 5 h incubation, median.
Test [5] has as its system SUDHL10. The experiment in a line: Induction of caspase-3/7 activity (Caspase-Glo 3/7), SUDHL10. It counts as cell-based. The note with it: Homo sapiens, SU-DHL10, 3 h, caspase-3/7 induction, SUDHL10 cells, 3 h treatment; median. In short, it runs like this:
(§2)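 Apoptosis induction measured as caspase-3/7 activity (Caspase-Glo 3/7) in DLBCL lines after 3 h treatment at 37 °C; EC50 derived relative to the reference compound's maximal induction, with C0 fixed at 1.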

For test [6], the system named is SUDHL5. Briefly: Induction of caspase-3/7 activity (Caspase-Glo 3/7), SUDHL5. It counts as cell-based. The following applies: Homo sapiens, SU-DHL-5, 3 h, caspase-3/7 induction, SUDHL5 cells, 3 h treatment; median. In short, it runs like this: as §2
The subject of test [7] is A2780. The experiment in a line: Anti-proliferative effect (CellTiter-Glo, 72 h), A2780. It counts as cell-based. The note with it: A2780 cells, median, read-out: IC50 antiproliferation assay A2780 [M] (median). The method in brief: as §1
The target in test [8] is MCL-1 (Homo sapiens, UniProt Q07820). Briefly: Protein-protein interaction assay MCL-1/Noxa BH3 peptide (MCL-1 assay), TR-FRET. It counts as binding. The following applies: MBP-MCL-1 / Noxa BH3-derived peptide, median. The method in brief:
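Inhibition values were normalized between DMSO controls with all reagents and controls lacking MCL-1. The binding competition used 1 nM MBP-MCL-1 in pH 7 Tris buffer containing 50 mM KF and 100 mM NaCl, with a 10 min compound preincubation at 22 °C.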

Chain of MCL-1 (Q07820 whole entry): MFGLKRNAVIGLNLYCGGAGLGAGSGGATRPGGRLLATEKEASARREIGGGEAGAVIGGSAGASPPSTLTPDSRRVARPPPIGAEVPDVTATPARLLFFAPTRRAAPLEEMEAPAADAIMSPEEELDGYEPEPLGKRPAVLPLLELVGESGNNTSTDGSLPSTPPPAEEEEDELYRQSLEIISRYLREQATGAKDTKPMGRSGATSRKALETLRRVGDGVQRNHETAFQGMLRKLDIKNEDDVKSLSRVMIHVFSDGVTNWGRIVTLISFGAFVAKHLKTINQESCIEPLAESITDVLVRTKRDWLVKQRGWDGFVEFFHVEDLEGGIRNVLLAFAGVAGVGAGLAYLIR

Take `Cc1nn(CC(F)(F)F)c2c1-c1cccc3c(CCCOc4cccc5c4CCCC5)c(C(=O)O)n(c13)CCCCOC2` (racemic) [Example 161, (rac)-3-methyl-7-[3-(5,6,7,8-tetrahydronaphthalen-1-yloxy)propyl]1-(2,2,2-trifluoroethyl)-1,10,11,12,13,15-hexahydropyrazolo[4′,3′:9,10][1,6]oxazacycloundecino[8,7,6-hi]indole-8-carboxylic Acid]: the IC50 in test [1] is 1.26e-05 M; in test [2], greater than 3.3e-05 M; in test [3] it was 1.36e-05 M; in test [4], 1.06e-05 M; in test [7] (Homo sapiens, A2780, 72 h) it was 1.62e-05 M; in test [8], 52.1 nM. Besides, the EC50 (usually the midpoint of the concentration-response curve) in test [5] was greater than 33 µM; in test [6], 15 µM.

As to `COCCn1nc(C2CC2)c2c1COCCCCn1c(C(=O)O)c(CCCOc3cccc4c3CCCC4)c3cccc-2c31` (racemic) [Example 164, (rac)-3-Cyclopropyl-1-(2-methoxyethyl)-7-[3-(5,6,7,8-tetrahydronaphthalen-1-yloxy)propyl]-1,10,11,12,13,15-hexahydropyrazolo[4′,3′:9,10][1,6]oxazacycloundecino[8,7,6-hi]indole-8-carboxylic Acid], the IC50 in test [1] amounted to 1.69e-05 M; in test [2] it was 3.07e-05 M; in test [3], 1.6e-05 M; in test [4] it was 9.23e-06 M; in test [7] (Homo sapiens, A2780, 72 h), 2.03e-05 M; in test [8], 10.7 nM. Further, the EC50 in test [5] was greater than 33 µM; in test [6], 12 µM.

With `Cn1nc(CN2CC(F)(F)C2)c2c1COCCCCn1c(C(=O)O)c(CCCOc3cccc4ccccc34)c3cccc-2c31` (racemic) [Example 180, (rac)-3-[(3,3-difluoroazetidin-1-yl)methyl]-1-methyl-7-[3-(naphthalen-1-yloxy)propyl]-1,10,11,12,13,15-hexahydropyrazolo[4′,3′:9,10][1,6]oxazacycloundecino[8,7,6-hi]indole-8-carboxylic Acid], the IC50 in test [1] was determined as 8.97e-06 M; in test [2], 3.11e-05 M; in test [3] it was 7.77e-06 M; in test [4], 1.1e-05 M; in test [7] (Homo sapiens, A2780, 72 h) it was 2.36e-05 M; in test [8], 17.7 nM. For the same compound, the EC50 was found to be 28.2 µM in test [5] and 14.5 µM in test [6].

Regarding `COCc1nn(C)c2c1-c1cccc3c(CCCOc4cccc5ccccc45)c(C(=O)O)n(c13)CCCCN(C)C2` (racemic) [Example 183, (rac)-3-(methoxymethyl)-1,14-dimethyl-7-[3-(naphthalen-1-yloxy)propyl]-10,11,12,13,14,15-hexahydro-1H-pyrazolo[3′,4′:8,9][1,6]diazacycloundecino[10,11,1-hi]indole-8-carboxylic Acid], the IC50 in test [1] is 4.14e-06 M; in test [2] it was 5.55e-06 M; in test [3], 2.43e-06 M; in test [4], 1.88e-06 M; in test [7], 2.39e-05 M; in test [7] (Homo sapiens, A2780, 72 h), greater than 3.3e-05 M. This compound gave an IC50 in test [8] of 2.25 nM. Besides, the EC50 in test [5] stood at 5.89 µM; in test [6] it was 1.46 µM.

On to `Cn1nc2c(c1C(F)(F)F)-c1cccc3c(CCCOc4cccc5ccccc45)c(C(=O)O)n(c13)CCCCOC2` (racemic) [Example 186, (rac)-2-methyl-7-[3-(naphthalen-1-yloxy)propyl]-3-(trifluoromethyl)-2,10,11,12,13,15-hexahydropyrazolo[4′3′:9,10][1,6]oxazacycloundecino[8,7,6,6-hi]indole-8-carboxylic Acid], for which the IC50 in test [1] is 1.4e-05 M; in test [2] it was 2.61e-05 M; in test [3], 8.69e-06 M; in test [4], 1.14e-05 M; in test [7], 2.28e-05 M; in test [7] (Homo sapiens, A2780, 72 h), greater than 3.3e-05 M. In addition, the IC50 in test [8] was found to be 15.7 nM. Further, the EC50 in test [5] amounted to 18.6 µM; in test [6], 9.85 µM.

As for `CCCc1nn(C)c2c1-c1c(C)ccc3c(CCCOc4cccc5ccccc45)c(C(=O)O)n(c13)CCCCOC2` (racemic) [Example 187, (rac)-1,4-dimethyl-7-[3-(naphthalen-1-yloxy)propyl]-3-propyl-1,10,11,12,13,15-hexahydropyrazolo[4′,3′:9,10][1,6]oxazacycloundecino[8,7,6-hi]indole-8-carboxylic Acid], the IC50 in test [1] is 1.41e-05 M; in test [2] it was 1.07e-05 M; in test [3], 7.27e-06 M; in test [4] it was 3.85e-06 M; in test [7], greater than 3.3e-05 M; in test [7] (Homo sapiens, A2780, 72 h), 2.17e-05 M. The compound further yielded an IC50 in test [8] of 2.61 nM. The values for the EC50 in test [5] and in test [6] were 13.3 µM and 3.71 µM, respectively.

For the compound `Cc1c2c(nn1C)CCCCCCn1c(C(=O)O)c(CCCOc3cccc4ccccc34)c3cccc-2c31` (racemic) [Example 190, (rac)-2,3-dimethyl-7-[3-(1-naphthyloxy)propyl]-10,11,12,13,14,15-hexahydro-2H-pyrazolo[4′,3′:4,5]azacycloundecino[3,2,1-hi]indole-8-carboxylic Acid], the IC50 in test [1] came to 5.34e-06 M; in test [2], 9.19e-06 M; in test [3], 2.35e-06 M; in test [4], 3.85e-06 M; in test [7] (Homo sapiens, A2780, 72 h) it was 2.02e-05 M; in test [8], 5.46 nM. Further, the EC50 in test [5] was determined as 7.26 µM; in test [6], 3.13 µM.

Take `CCCc1nn(C)c2c1-c1c(C)ccc3c(CCCOc4cccc5ccccc45)c(C(=O)O)n(c13)CCCN(C)C2` (racemic) [Example 193, (rac)-7,9,12-trimethyl-1-[3-(naphthalen-1-yloxy)propyl]-1-propyl-4,5,6,7,8,9-hexahydropyrazolo[3′,4′:7,8][1,5]diazecino[9,10,1-hi]indole-2-carboxylic Acid]: the IC50 in test [1] is 7.14e-06 M; in test [2] it was 7.65e-06 M; in test [3], 4.45e-06 M; in test [4], 2.3e-06 M; in test [7] (Homo sapiens, A2780, 72 h), 1.9e-05 M; in test [8], 2.33 nM. The EC50 came to 8.35 µM in test [5] and 2.47 µM in test [6].

`CCc1nn(CCN2CCOCC2)c2c1-c1cccc3c(CCCOc4cccc5ccccc45)c(C(=O)O)n(c13)CCCCOC2` (racemic) [Example 198, (rac)-3-ethyl-1-[2-(morpholin-4-yl)ethyl]-7-[3-(naphthalen-1-yloxy)propyl]-1,10,11,12,13,15-hexahydropyrazolo[4′,3′:9,10][1,6]oxazacycloundecino[8,7,6-hi]indole-8-carboxylic Acid]: the IC50 in test [1] was determined as 7.48e-06 M; in test [2], 6.77e-06 M; in test [3], 3.35e-06 M; in test [4], 2.05e-06 M; in test [7] (Homo sapiens, A2780, 72 h) it was 2.25e-05 M; in test [8], 2.8 nM. Besides, the results for the concentration for a half-maximal effect (EC50) in test [5] and in test [6] were 6.94 µM and 1.72 µM, respectively.

With `CCc1c2c(nn1CCN1CCOCC1)COCCCCn1c(C(=O)O)c(CCCOc3cccc4ccccc34)c3ccc(C)c-2c31` (racemic) [Example 204, (rac)-3-ethyl-4-methyl-2-[2-(morpholin-4-yl)ethyl]-7-[3-(naphthalen-1-yloxy)propyl]-2,10,11,12,13,15-hexahydropyrazolo[4′,3′:9,10][1,6]oxazacycloundecino[8,7,6-hi]indole-8-carboxylic Acid], the IC50 in test [1] worked out at 5.15e-06 M; in test [2], 5.63e-06 M; in test [3], 4.17e-06 M; in test [4], 1.9e-06 M; in test [7] (Homo sapiens, A2780, 72 h) it was 1.78e-05 M; in test [8], 3.75 nM. Besides, the concentration giving a half-maximal response (EC50) turned out to be 6.09 µM in test [5] and 1.73 µM in test [6].
